We go through 22 molecules from US20060069123A1, “Substituted dipiperidine CCR2 antagonists” (priority 2004, published 2006).

Read-outs that look alike come from different tables or passages of the source.

The target in one test is T1, CCR2 (Homo sapiens, UniProt P41597).
T1 sequence (P41597 1-360 isoform P41597-2): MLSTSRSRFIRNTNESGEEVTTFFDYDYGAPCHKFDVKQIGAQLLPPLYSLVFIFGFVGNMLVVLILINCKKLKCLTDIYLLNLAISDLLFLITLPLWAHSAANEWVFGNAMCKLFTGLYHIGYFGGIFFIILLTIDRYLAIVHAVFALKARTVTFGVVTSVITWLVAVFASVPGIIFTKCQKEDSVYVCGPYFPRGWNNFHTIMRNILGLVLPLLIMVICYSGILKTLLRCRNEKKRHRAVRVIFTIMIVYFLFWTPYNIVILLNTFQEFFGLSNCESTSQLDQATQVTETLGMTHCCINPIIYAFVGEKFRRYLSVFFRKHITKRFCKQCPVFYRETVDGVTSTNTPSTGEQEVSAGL

Test [1] relates to THP-1 cells. In words: MCP-1 Induced Chemotaxis in THP-1 Cells. Format: cell-based. The settings on record: Homo sapiens; THP-1 cells, MCP-1 0.01 μg/mL, 3 hours; read-out: Inhibition of MCP-1 Induced Chemotaxis IC50.
The test system of test [2] is THP-1 cells. The note with it: Homo sapiens; for IC50: THP-1, read-out: Inhibition of MCP-1 Induced Calcium Ion Influx IC50.

As to `CS(=O)(=O)N(CC(C1CCN(C(=O)/C=C/c2cc(F)cc(F)c2)CC1)N1CCC(c2c[nH]c3ccccc23)CC1)S(C)(=O)=O` (stereo not drawn) [Cpd 134, N-{2-{1-[(2E)-3-(3,5-difluoro-phenyl)-acryloyl]-piperidin-4-yl}-2-[4-(1H-indol-3-yl)-piperidin-1-yl]-ethyl}-N-methanesulfonyl-methanesulfonamide], the IC50 (in general, the concentration at which inhibition is half-maximal) stood at 300 nM at CCR2, 90 nM with THP-1 cells [1] and 10 nM in the test with THP-1 cells [2].

With `Cc1cc(C)cc(NC(=O)N2CCC(C(C(=O)O)N3CCC(c4c[nH]c5ccccc45)CC3)CC2)c1` (stereo not drawn) [Cpd 135, [1-(3,5-dimethyl-phenylcarbamoyl)-piperidin-4-yl]-[4-(1H-indol-3-yl)-piperidin-1-yl]-acetic acid], the figures for the IC50 on CCR2, in the test with THP-1 cells [1] and with THP-1 cells [2] were 940 nM, 770 nM and 7100 nM, respectively.

In the case of `O=C(O)C(C1CCN(C(=O)Nc2cc(C(F)(F)F)cc(C(F)(F)F)c2)CC1)N1CCC(c2c[nH]c3ccccc23)CC1` (stereo not drawn) [Cpd 136, [1-(3,5-bis-trifluoromethyl-phenylcarbamoyl)-piperidin-4-yl]-[4-(1H-indol-3-yl)-piperidin-1-yl]-acetic acid], the figures for the IC50 on CCR2, in the test on THP-1 cells [1] and with THP-1 cells [2] were 80 nM, 140 nM and 130 nM, respectively.

On to `COc1ccc(C2CCN(C(CO)C3CCN(C(=O)/C=C/c4cc(F)cc(F)c4)CC3)CC2)cc1` (stereo not drawn) [Cpd 137, (2E)-3-(3,5-difluoro-phenyl)-1-(4-{2-hydroxy-1-[4-(4-methoxy-phenyl)-piperidin-1-yl]-ethyl}-piperidin-1-yl)-propenone], for which the half-maximal inhibitory concentration (IC50) at CCR2 worked out at 30 nM; with THP-1 cells [1], 80 nM; with THP-1 cells [2], 210 nM.

As to `COc1ccc(C2CCN(C(CO)C3CCN(C(=O)/C=C/c4ccc(F)c(F)c4)CC3)CC2)cc1` (stereo not drawn) [Cpd 138, (2E)-3-(3,4-difluoro-phenyl)-1-(4-{2-hydroxy-1-[4-(4-methoxy-phenyl)-piperidin-1-yl]-ethyl}-piperidin-1-yl)-propenone], the 50% inhibitory concentration (IC50) at CCR2 is 172 nM; in the test with THP-1 cells [1], 217 nM; with THP-1 cells [2] it was 1290 nM.

For `COc1ccc(C2CCN(C(CO)C3CCN(C(=O)/C=C/c4ccc(Cl)c(Cl)c4)CC3)CC2)cc1` (stereo not drawn) [Cpd 139, (2E)-3-(3,4-dichloro-phenyl)-1-(4-{2-hydroxy-1-[4-(4-methoxy-phenyl)-piperidin-1-yl]-ethyl}-piperidin-1-yl)-propenone], the IC50 worked out at 20 nM against CCR2, 50 nM in the test on THP-1 cells [1] and 40 nM in the test on THP-1 cells [2].

As for `COc1ccc(C2CCN(C(CO)C3CCN(C(=O)Nc4ccc(F)c(F)c4)CC3)CC2)cc1` (stereo not drawn) [Cpd 141, 4-{2-hydroxy-1-[4-(4-methoxy-phenyl)-piperidin-1-yl]-ethyl}-piperidine-1-carboxylic acid (3,4-difluoro-phenyl)-amide], the half-inhibitory concentration (IC50) at CCR2 worked out at 340 nM; in the test with THP-1 cells [1], 760 nM; in the test on THP-1 cells [2], 6900 nM.

As to `O=C(O)C(C1CCN(C(=O)Nc2ccc(SC(F)(F)F)cc2)CC1)N1CCC(c2c[nH]c3ccccc23)CC1` (stereo not drawn) [Cpd 142, [4-(1H-indol-3-yl)-piperidin-1-yl]-[1-(4-trifluoromethylsulfanyl-phenylcarbamoyl)-piperidin-4-yl]-acetic acid], the half-inhibitory concentration (IC50) was 5 nM against CCR2, 60 nM in the test on THP-1 cells [1] and 30 nM in the test on THP-1 cells [2].

As for `CSc1cccc(NC(=O)N2CCC(C(C(=O)O)N3CCC(c4c[nH]c5ccccc45)CC3)CC2)c1` (stereo not drawn) [Cpd 144, [4-(1H-indol-3-yl)-piperidin-1-yl]-[1-(3-methylsulfanyl-phenylcarbamoyl)-piperidin-4-yl]-acetic acid], the half-inhibitory concentration (IC50) against CCR2 turned out to be 50 nM; in the test with THP-1 cells [1], 500 nM; with THP-1 cells [2], 1300 nM.

With `COC(=O)c1ccc2[nH]cc(C3CCN(C(C(=O)O)C4CCN(C(=O)/C=C/c5cc(F)c(F)c(F)c5)CC4)CC3)c2c1` (stereo not drawn) [Cpd 146, 3-[1-(carboxy-{1-[(2E)-3-(3,4,5-trifluoro-phenyl)-acryloyl]-piperidin-4-yl}-methyl)-piperidin-4-yl]-1H-indole-5-carboxylic acid methyl ester], the IC50 turned out to be 7 nM at CCR2, 53 nM in the test with THP-1 cells [1] and 50 nM in the test with THP-1 cells [2].

For the molecule `O=C(O)c1ccc2[nH]cc(C3CCN(C(C(=O)O)C4CCN(C(=O)/C=C/c5cc(F)c(F)c(F)c5)CC4)CC3)c2c1` (stereo not drawn) [Cpd 147, 3-[1-(carboxy-{1-[(2E)-3-(3,4,5-trifluoro-phenyl)-acryloyl]-piperidin-4-yl}-methyl)-piperidin-4-yl]-1H-indole-5-carboxylic acid], the IC50 was 150 nM on CCR2, 40 nM with THP-1 cells [1] and 600 nM in the test on THP-1 cells [2].

In the case of `O=C(/C=C/c1cc(F)c(F)c(F)c1)N1CCC(C(CO)N2CCC(c3c[nH]c4ncccc34)CC2)CC1` (stereo not drawn) [Cpd 153, (2E)-1-(4-{2-hydroxy-1-[4-(1H-pyrrolo[2,3-b]pyridin-3-yl)-piperidin-1-yl]-ethyl}-piperidin-1-yl)-3-(3,4,5-trifluoro-phenyl)-propenone], the IC50 at CCR2 came out at 3 nM; in the test on THP-1 cells [1], 9 nM; in the test on THP-1 cells [2] it was 7 nM.

`O=C(c1cc2ccccc2o1)N1CCC(C(CO)N2CCC(c3c[nH]c4ccccc34)CC2)CC1` (stereo not drawn) [Cpd 154, benzofuran-2-yl-(4-{2-hydroxy-1-[4-(1H-indol-3-yl)-piperidin-1-yl]-ethyl}-piperidin-1-yl)-methanone]: the IC50 worked out at 270 nM on CCR2, 160 nM with THP-1 cells [1] and 4800 nM in the test on THP-1 cells [2].

Consider `O=C(/C=C/c1ccc(Cl)c(Cl)c1)N1CCC(C(CO)N2CCC(c3cc[nH]n3)CC2)CC1` (stereo not drawn) [Cpd 155, (2E)-3-(3,4-dichloro-phenyl)-1-(4-{2-hydroxy-1-[4-(1H-pyrazol-3-yl)-piperidin-1-yl]-ethyl}-piperidin-1-yl)-propenone], for which the IC50 at CCR2 is 207 nM; with THP-1 cells [1] it was 130 nM; with THP-1 cells [2], 940 nM.

Take `O=C(/C=C/c1cc(F)c(F)c(F)c1)N1CCC(C(CO)N2CCC(c3cc[nH]n3)CC2)CC1` (stereo not drawn) [Cpd 156, (2E)-1-(4-{2-hydroxy-1-[4-(1H-pyrazol-3-yl)-piperidin-1-yl]-ethyl}-piperidin-1-yl)-3-(3,4,5-trifluoro-phenyl)-propenone]: the IC50 at CCR2 was determined as 80 nM; with THP-1 cells [1], 120 nM. In addition, the inhibition (in general, the share of the control response that was lost under treatment) at 25 µM in the test with THP-1 cells [2] (THP-1, read-out: Inhibition of MCP-1 Induced Calcium Ion Influx, percent inhibition) worked out at 50%.

On to `O=C(c1cc2cc(Cl)ccc2o1)N1CCC(C(CO)N2CCC(c3c[nH]c4ccccc34)CC2)CC1` (stereo not drawn) [Cpd 157, (5-chloro-benzofuran-2-yl)-(4-{2-hydroxy-1-[4-(1H-indol-3-yl)-piperidin-1-yl]-ethyl}-piperidin-1-yl)-methanone], for which the IC50 on CCR2 was 440 nM; with THP-1 cells [1] it was 460 nM; in the test with THP-1 cells [2], 320 nM.

As for `COc1ccc(C2CCN(C(CO)C3CCN(C(=O)/C=C/c4cc(F)c(F)c(F)c4)CC3)CC2)cc1` (stereo not drawn) [Cpd 158, (2E)-1-(4-{2-hydroxy-1-[4-(4-methoxy-phenyl)-piperidin-1-yl]-ethyl}-piperidin-1-yl)-3-(3,4,5-trifluoro-phenyl)-propenone], the IC50 on CCR2 turned out to be 100 nM; with THP-1 cells [1] it was 100 nM; in the test with THP-1 cells [2] it was 140 nM.

`COc1ccc(C2CCN(C(CO)C3CCN(C(=O)/C=C/c4ccccc4)CC3)CC2)cc1` (stereo not drawn) [Cpd 159, (2E)-1-(4-{2-hydroxy-1-[4-(4-methoxy-phenyl)-piperidin-1-yl]-ethyl}-piperidin-1-yl)-3-phenyl-propenone]: the IC50 at CCR2 was 270 nM; in the test with THP-1 cells [1], 860 nM; in the test on THP-1 cells [2] it was 2100 nM.

Take `COc1ccc(C2CCN(C(CO)C3CCN(C(=O)/C=C/c4ccc(F)c(Br)c4)CC3)CC2)cc1` (stereo not drawn) [Cpd 161, (2E)-3-(3-bromo-4-fluoro-phenyl)-1-(4-{2-hydroxy-1-[4-(4-methoxy-phenyl)-piperidin-1-yl]-ethyl}-piperidin-1-yl)-propenone]: the IC50 stood at 50 nM at CCR2, 90 nM in the test on THP-1 cells [1] and 180 nM with THP-1 cells [2].

With `COc1ccc2[nH]cc(C3CCN(C(CO)C4CCN(C(=O)/C=C/c5ccc(Cl)c(Cl)c5)CC4)CC3)c2c1` (stereo not drawn) [Cpd 162, (2E)-3-(3,4-dichloro-phenyl)-1-(4-{2-hydroxy-1-[4-(5-methoxy-1H-indol-3-yl)-piperidin-1-yl]-ethyl}-piperidin-1-yl)-propenone], the 50% inhibitory concentration (IC50) stood at 7 nM on CCR2, 20 nM with THP-1 cells [1] and 2 nM with THP-1 cells [2].

Take `COc1ccc2c(C3CCN(C(CO)C4CCN(C(=O)/C=C/c5ccc(Cl)c(Cl)c5)CC4)CC3)c[nH]c2c1` (stereo not drawn) [Cpd 163, (2E)-3-(3,4-dichloro-phenyl)-1-(4-{2-hydroxy-1-[4-(6-methoxy-1H-indol-3-yl)-piperidin-1-yl]-ethyl}-piperidin-1-yl)-propenone]: the IC50 amounted to 30 nM on CCR2, 150 nM in the test with THP-1 cells [1] and 10 nM in the test with THP-1 cells [2].

In the case of `COc1ccc2[nH]cc(C3CCN(C(CO)C4CCN(C(=O)/C=C/c5cc(F)cc(F)c5)CC4)CC3)c2c1` (stereo not drawn) [Cpd 164, (2E)-3-(3,5-difluoro-phenyl)-1-(4-{2-hydroxy-1-[4-(5-methoxy-1H-indol-3-yl)-piperidin-1-yl]-ethyl}-piperidin-1-yl)-propenone], the IC50 at CCR2 came to 10 nM; in the test with THP-1 cells [1] it was 40 nM; with THP-1 cells [2], 9 nM.
